The values that follow are results of earlier work, collected in article PMC10338470, “Phase 1 study of GSK3368715, a type I PRMT inhibitor, in patients with advanced solid tumors” (British Journal of Cancer, 2023).

Each structure is given as a SMILES string.

The subject of this series is adenoid cystic carcinoma. The arrangement: method as in doi:10.1016/j.annonc.2020.08.651. Conditions: patients with adenoid cystic carcinoma ref [18]; cited from earlier work.

For `Nc1nc2cc(CC[C@H]3C[C@@H](n4ccc5c(N)ncnc54)[C@H](O)[C@@H]3O)ccc2cc1Br` [JNJ64619178], the Partial response rate was 13%.
